Experiments:
HL-60 cells [1] = experiment: Morphological analysis, Wright-Giemza stain; assay type: cell-based, human; conditions: 10^−7M, 120 hrs
Experimental: (A) Cell cycle analysis of HL-60 cells by flow cytometry. HL-60 cells were cultured with paricalcitol (10^−7 M) for 72 hrs, harvested and stained with propidium iodine (PI). Control cells were treated with vehicle alone. Results represent the mean±SD of three independent experiments. (B) HL-60 or NB-4 cells were treated with either paricalcitol (10^−7 M) or 1,25(OH)2D3 (10^−7 M). Cell lysates were prepared after 72 hrs and analyzed by Western blot with a series of antibodies (p21WAF1, p27KIP1, PTEN). Control cells were treated with vehicle alone. The amounts of protein were normalized by comparison to levels of GAPDH. […] Dashed line indicates negative control antibody; black area, CD14 antibody. CD14 positive cells are in the area shown by M2. (D) HL-60 cells were cultured with paricalcitol (10^−7 M) for 120 hrs, fixed and stained with Wright-Giemza stain for morphological analysis.

NCI-H929 myeloma cells = conditions: 4 days exposure
[2] = test system: HT-29 human colon cancer tumors; experiment: HT-29 tumors growing in nude mice; assay type: in vivo; conditions: 100 ng/mouse intraperitoneally 3 days a week, vs diluant control
Experimental: HT-29 cells were bilaterally injected subcutaneously into nude mice, forming two tumors per mouse. The mice were divided randomly into control and experimental groups. […] In FIG. 5A, tumor volumes were measured every week. The mean volume±SD of 10 tumors in each group is shown. […] In FIG. 5B, After 4 weeks of therapy, tumors were removed from each group and weighed. […] For the mouse studies, BNX nu/nu nude mice at 8 weeks of age were purchased from Harlan Sprangue Dawley, Inc. (Indianapolis, Ind.) and their care was in accord with the guidelines of Cedars-Sinai Research Institute. They were maintained in pathogen-free conditions with irradiated chow. […] The mice were blindly randomized to the experimental and control groups. Treatment was started on the day after the injection of […] cells and continued for 6 weeks. […] Tumor sizes were measured every week and calculated by the formula: A (length)×B (width)×C (height)×0.5236. […] All mice were euthanized at the end of the study, and the tumors were fixed in 10% neutral buffered formalin and embedded in paraffin for histological analysis. The data were analyzed by Student's t test.

SW837 cells = experiment: Western blot of cell lysates; assay type: cell-based, human; conditions: 10^−7M, 72 hrs
Experimental: Western blot analysis was used to determine the levels of proteins involved in cell cycle and differentiation. […] After centrifugation at 15,000×g for 15 min at 4° C., the suspension was collected. Protein concentrations were quantitated using the Bio-Rad assay (Bio-Rad Labolatories, Hercules, Calif.). […] The blots were developed using the Supersignal West Pico Chemiluminescent Substrate Kit (Pierce, Rockford, Ill.). In FIG. 4C, HT-29 and SW837 cells were cultured with either paricalcitol (10^−7M) or 1,25(OH)2D3 (10^−7M) for 72 hrs. Cell lysates were prepared and analyzed by Western blot which was probed sequentially with antibodies to COX-1 and COX-2 (Santa Cruz Biotechnology). Control cells were treated with vehicle alone. The amount of protein was normalized by comparison to the quantity of GAPDH.

[3] = test system: THP-1 myeloid leukemia cells; experiment: MTT assay; assay type: cell-based, human; conditions: 4 day exposure
[4] = humans, cited from earlier work
HL-60 cells [5] = experiment: Cell cycle analysis by flow cytometry; assay type: cell-based, human; conditions: 10^−7M, 72 hr
Experimental: For cell cycle analysis, cells were exposed to 10^−7M 1,25(OH)2D3, 10^−7M paricalcitol or vehicle control for either 3 or 4 days. Total cells, both in suspension and adherent, were collected, washed, suspended in cold PBS. Then cells were fixed in 75% chilled methanol and stained with propidium iodine. Cell cycle status was analyzed on a Becton Dickinson Flow Cytometer.
Cell cycle analysis was performed as follows: after treatment of 5×10^4 of cells with a selected compound, cells were collected, washed and suspended in cold PBS. Cells were fixed in chilled 75% methanol and stained with propidium iodine. Cell cycle status was analyzed on a Becton Dickinson Flow Cytometer used standart protocols.

24-hydroxylase mRNA = experiment: RT-PCR of 24-hydroxylase mRNA, spleen mononuclear cells of wild type mice; assay type: cell-based; conditions: 10^−8 M
Experimental: In FIG. 6B, HT-29 colon cancer cells were treated with paricalcitol (10^−7M) for 0, 6, 12 or 24 hrs and RNA was harvested. Expression of 24 hydroxylase mRNA was analysed by RT-PCR. The amounts of mRNA were normalized by comparison to 18S RNA. In FIG. 6C, mononuclear cells extracted from spleens of either wild type or VDR knock-out mice were treated with paricalcitol (10^−8M) for either 12 or 24 hrs, and RNA was harvested. Expression of 24 hydroxylase mRNA was analysed by RT-PCR. The amounts of mRNA were normalized by comparison to 18S RNA. For the PCR analysis, RNA extraction and reverse transcription were done by TRIzole (Invitrogen, Carlsbad, Calif.) and reverse transcriptase (Promega, Madison, Wis.). A twenty-microliter volume of cDNA was prepared from 1 μg of RNA. cDNAs were amplified by PCR with specific primers for 24-hydroxylase and 18S. The cycle number was 25 for 18S and 32 for 24-hydroxylase. […] The VDR KO Mouse and Colony-Forming Assay was performed as follows. VDR KO mice were generated and genotypes were determined by Southern Blot Analysis as described previously (O'Kelly et al., supra, 2002). For experiments using VDR KO mice, their wild-type (WT) littermates were used as controls. Mice were killed by cervical neck dislocation. […] Colonies were counted after 2 weeks. […]

Compound: C[C@H](/C=C/[C@H](C)C(C)(C)O)[C@H]1CC[C@H]2/C(=C/C=C3C[C@@H](O)C[C@H](O)C3)CCC[C@]12C [paricalcitol, 19-nor-1,25, (OH)2D3]
- morphological examination (HL-60 cells [1]): monocytic differentiation
- antiproliferative effect by MTT assay (NCI-H929 myeloma cells): sensitive
- mean tumor weights ([2]; after 4 weeks, p=0.0004): significantly suppressed
- growth of colon cancer tumors (tumor volumes) ([2]; p=0.03): significantly suppressed
- decrease of COX-2 expression (SW837 cells): 40%
- effect on COX-1 expression (SW837 cells): without affecting
- antiproliferative effect by MTT assay [3]: sensitive
- dose safely given [4]: up to 16.8 mg
- hypercalcemia ([4]; compared with 1,25(OH)2D3): less likely to cause hypercalcemia
- decrease of cells in S phase (HL-60 cells [5]): 33%
- increase of cells in G0/G1 phase (HL-60 cells [5]): 16%
- increase of cells in G2/M phase (HL-60 cells [5]): 17%
- time within which 24-hydroxylase mRNA expression was induced (24-hydroxylase mRNA): ≤ 12 h

Reference: patent US20050054620A1, “Paricalcitol as a chemotherapeutic agent” (priority 2003, published 2005)
